Earlier results, collected in patent publication US20110295365A1, “Anti-viral compositions and methods for administration” (Searete LLC, a limited liability corporation of the State …, priority 2010, published 2011).

Columns and labels:
[1] = in vivo

Row | Compound | inhibition of viral entry (varicella zoster virus) | passage across the placenta from mother to child [1]
1 | heparin | inhibition of viral entry | –
2 | enfuvirtide | – | do not efficiently pass from mother to child
3 | O=C[C@@H](O)[C@@H](O)[C@H](O)[C@H](O)COP(=O)(O)O [mannose 6-phosphate] | inhibition of viral entry | –
